The target of experiment [1] is Leukocyte tyrosine kinase receptor (Homo sapiens, UniProt P29376). Kind of experiment: Selectivity interaction (ProQinase) EUB0000171b LTK.
In experiment [2] the target is Serine/threonine-protein kinase PAK 1 (Homo sapiens) (UniProt Q13153). Kind of experiment: Selectivity interaction (Kinase panel (DSF assay)) EUB0001558a PAK1. Background: DSF heats the sample and reads unfolding from a dye or from intrinsic fluorescence.
Experiment [3] has as its target Glycogen synthase kinase-3 alpha (Homo sapiens, UniProt P49840). The experiment can be described thus: Selectivity interaction (Kinase panel (Z-LYTE Assay)) EUB0001632a GSK3A. To be noted: at 10 µM.
The subject of experiment [4] is T1, Discoidin domain-containing receptor 2 (Homo sapiens), Q16832 [T654M].
T1 sequence (whole entry): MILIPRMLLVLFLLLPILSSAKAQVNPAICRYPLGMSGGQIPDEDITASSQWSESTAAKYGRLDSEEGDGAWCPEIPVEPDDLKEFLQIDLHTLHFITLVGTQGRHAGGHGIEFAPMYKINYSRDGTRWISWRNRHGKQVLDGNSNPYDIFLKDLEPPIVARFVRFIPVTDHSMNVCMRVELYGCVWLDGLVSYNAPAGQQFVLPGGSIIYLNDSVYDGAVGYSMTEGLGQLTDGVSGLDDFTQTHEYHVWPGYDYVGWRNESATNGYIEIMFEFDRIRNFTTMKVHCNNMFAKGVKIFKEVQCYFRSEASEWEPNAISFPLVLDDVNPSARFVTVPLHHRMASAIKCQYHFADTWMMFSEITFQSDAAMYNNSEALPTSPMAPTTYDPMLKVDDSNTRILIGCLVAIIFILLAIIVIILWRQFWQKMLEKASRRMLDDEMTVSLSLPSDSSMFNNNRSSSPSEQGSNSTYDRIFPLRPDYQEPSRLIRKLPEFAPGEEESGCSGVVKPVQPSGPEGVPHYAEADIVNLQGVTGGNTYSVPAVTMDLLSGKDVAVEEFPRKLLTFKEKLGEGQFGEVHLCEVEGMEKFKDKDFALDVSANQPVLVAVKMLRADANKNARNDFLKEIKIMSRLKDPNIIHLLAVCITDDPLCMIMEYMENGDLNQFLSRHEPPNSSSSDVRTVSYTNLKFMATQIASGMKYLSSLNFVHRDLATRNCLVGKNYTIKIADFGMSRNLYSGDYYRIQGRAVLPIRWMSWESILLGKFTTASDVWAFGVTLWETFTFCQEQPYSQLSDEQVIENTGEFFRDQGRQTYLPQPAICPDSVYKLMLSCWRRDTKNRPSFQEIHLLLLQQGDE
The experiment can be described thus: (§1) Selectivity interaction (LanthaScreen Eu Kinase Binding Assay) EUB0001632a DDR2. To be noted: at 10 µM. A general note: Time-resolved FRET reads energy transfer from a long-lived donor to a nearby acceptor.

The target of experiment [5] is T2, Discoidin domain-containing receptor 2 (Homo sapiens) (UniProt Q16832).
T2 sequence (whole entry): T1 sequence (whole entry) with M654T
Described as §1. To be noted: at 10 µM.

Experiment [6] has as its target Receptor tyrosine-protein kinase erbB-2 (Homo sapiens, UniProt P04626). The experiment can be described thus: Selectivity interaction (Kinase panel (Invitrogen)) EUB0000639a ERBB2. The following applies: at 200 nM.
For experiment [7], the target named is T3, Serine/threonine-protein kinase Nek11 (Homo sapiens) (UniProt Q8NG66).
T3 sequence (whole entry): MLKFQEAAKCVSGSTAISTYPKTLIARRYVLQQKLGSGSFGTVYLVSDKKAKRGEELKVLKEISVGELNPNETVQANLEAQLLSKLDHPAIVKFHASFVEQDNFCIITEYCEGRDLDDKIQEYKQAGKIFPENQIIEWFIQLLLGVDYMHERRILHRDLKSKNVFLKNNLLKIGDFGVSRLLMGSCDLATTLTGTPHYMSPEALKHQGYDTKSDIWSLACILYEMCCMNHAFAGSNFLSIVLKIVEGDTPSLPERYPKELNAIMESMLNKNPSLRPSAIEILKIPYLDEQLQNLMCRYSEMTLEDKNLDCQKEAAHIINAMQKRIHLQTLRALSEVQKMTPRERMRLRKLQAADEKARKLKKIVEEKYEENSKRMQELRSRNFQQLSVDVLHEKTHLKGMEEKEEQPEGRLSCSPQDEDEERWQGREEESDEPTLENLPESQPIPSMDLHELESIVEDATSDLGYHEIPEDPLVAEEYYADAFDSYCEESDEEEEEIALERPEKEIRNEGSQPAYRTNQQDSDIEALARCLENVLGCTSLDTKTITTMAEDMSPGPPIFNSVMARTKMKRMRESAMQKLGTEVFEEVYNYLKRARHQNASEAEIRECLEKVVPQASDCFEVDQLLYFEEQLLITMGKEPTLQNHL
Kind of experiment: Selectivity interaction (KinomeScan (DiscoverX)) EUB0000618a NEK11. To be noted: at 10 µM.

Molecules are shown by their SMILES. Residue numbers refer to the chain shown, from its start.

Chain of Leukocyte tyrosine kinase receptor (P29376 whole entry): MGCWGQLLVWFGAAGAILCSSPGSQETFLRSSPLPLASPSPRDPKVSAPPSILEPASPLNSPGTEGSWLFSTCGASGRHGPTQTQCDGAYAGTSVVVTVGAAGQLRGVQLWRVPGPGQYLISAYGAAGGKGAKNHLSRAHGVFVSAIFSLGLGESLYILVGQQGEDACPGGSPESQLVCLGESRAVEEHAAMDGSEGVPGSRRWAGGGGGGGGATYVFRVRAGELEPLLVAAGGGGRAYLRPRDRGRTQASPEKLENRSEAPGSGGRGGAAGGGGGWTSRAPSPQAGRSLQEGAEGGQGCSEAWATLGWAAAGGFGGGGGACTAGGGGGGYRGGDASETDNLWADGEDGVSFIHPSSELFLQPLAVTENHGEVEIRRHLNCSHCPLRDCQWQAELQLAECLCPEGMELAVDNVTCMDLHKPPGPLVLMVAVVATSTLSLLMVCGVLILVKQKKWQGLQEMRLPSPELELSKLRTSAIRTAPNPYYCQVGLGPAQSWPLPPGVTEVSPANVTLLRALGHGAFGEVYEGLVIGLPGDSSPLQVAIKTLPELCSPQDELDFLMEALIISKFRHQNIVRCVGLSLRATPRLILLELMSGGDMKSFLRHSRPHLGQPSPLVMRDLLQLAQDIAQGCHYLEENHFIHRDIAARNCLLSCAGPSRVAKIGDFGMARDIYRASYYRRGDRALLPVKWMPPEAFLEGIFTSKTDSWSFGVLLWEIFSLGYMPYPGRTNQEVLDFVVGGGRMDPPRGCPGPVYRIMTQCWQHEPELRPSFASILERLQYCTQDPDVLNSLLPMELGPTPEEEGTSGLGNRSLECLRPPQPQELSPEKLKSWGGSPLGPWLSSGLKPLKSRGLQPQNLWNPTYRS
Chain of Receptor tyrosine-protein kinase erbB-2 (P04626 whole entry): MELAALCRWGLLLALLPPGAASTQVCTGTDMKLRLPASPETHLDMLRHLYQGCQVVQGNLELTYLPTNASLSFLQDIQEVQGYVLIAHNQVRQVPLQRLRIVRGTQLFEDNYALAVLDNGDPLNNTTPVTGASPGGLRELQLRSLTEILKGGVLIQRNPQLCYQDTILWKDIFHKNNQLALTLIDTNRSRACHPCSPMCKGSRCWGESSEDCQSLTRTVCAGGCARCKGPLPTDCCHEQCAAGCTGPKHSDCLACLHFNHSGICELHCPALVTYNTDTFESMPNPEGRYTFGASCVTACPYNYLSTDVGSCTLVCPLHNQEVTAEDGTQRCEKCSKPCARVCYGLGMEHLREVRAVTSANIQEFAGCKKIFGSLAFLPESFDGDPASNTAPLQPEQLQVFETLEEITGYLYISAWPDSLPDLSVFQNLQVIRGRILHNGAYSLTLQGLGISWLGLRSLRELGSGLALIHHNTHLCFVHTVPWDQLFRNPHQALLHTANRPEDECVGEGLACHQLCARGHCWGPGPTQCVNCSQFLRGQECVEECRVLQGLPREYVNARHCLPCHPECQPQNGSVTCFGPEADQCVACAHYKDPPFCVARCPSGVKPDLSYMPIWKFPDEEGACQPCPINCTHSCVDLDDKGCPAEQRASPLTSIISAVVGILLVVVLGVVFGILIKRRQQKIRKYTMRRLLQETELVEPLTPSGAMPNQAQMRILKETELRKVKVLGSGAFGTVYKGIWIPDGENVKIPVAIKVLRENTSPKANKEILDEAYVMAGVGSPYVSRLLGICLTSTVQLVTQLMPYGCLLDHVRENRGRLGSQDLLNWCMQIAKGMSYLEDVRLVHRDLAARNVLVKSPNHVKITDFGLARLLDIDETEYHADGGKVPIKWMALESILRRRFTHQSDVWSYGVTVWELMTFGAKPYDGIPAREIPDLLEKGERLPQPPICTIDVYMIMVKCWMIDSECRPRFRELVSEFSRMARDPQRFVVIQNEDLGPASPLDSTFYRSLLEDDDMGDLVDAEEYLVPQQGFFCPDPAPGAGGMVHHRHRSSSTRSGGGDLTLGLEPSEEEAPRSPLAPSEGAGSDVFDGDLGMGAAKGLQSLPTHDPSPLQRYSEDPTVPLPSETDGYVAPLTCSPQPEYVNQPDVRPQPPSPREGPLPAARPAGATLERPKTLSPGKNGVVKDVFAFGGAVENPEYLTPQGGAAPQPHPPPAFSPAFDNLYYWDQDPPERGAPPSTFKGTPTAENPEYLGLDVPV
Chain of Serine/threonine-protein kinase PAK 1 (Homo sapiens) (Q13153 whole entry): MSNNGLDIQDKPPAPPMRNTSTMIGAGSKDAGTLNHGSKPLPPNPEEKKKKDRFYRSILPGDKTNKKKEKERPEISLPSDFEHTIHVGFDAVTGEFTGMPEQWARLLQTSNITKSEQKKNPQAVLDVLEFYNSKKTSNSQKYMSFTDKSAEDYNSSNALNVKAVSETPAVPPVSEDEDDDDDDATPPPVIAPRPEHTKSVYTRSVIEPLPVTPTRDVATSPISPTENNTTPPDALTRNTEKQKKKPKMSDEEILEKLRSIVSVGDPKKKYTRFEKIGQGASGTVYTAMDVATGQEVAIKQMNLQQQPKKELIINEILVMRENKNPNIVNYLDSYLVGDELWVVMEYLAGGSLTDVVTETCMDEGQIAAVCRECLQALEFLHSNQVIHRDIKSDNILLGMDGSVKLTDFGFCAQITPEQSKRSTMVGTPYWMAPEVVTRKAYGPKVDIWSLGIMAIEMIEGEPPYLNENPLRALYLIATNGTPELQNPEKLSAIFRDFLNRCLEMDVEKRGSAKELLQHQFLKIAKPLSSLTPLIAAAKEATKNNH
Chain of Glycogen synthase kinase-3 alpha (P49840 2-483 limits assumed): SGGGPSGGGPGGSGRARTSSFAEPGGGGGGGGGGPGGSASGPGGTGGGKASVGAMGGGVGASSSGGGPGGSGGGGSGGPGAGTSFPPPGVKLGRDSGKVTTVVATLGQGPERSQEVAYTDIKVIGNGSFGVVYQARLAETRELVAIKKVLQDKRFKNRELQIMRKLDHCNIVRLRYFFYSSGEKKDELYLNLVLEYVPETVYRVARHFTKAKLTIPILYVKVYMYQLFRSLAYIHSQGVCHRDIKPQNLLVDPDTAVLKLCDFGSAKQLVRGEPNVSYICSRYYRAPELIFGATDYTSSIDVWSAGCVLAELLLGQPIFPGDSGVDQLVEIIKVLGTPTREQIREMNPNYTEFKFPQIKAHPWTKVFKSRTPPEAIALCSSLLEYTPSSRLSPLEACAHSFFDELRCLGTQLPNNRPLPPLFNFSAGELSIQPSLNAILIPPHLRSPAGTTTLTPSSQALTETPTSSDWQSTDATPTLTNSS

For the compound `C=CC(=O)Nc1cccc(C(=O)Nc2ccc(Nc3cc(-c4[nH]c(SC)nc4C)ccn3)cc2)c1`, the values for the % of control in experiment [1] (at 1 µM) and in experiment [1] (at 5 µM) were 108% and 99%, respectively.

Consider `CC(C)(O)[C@H](F)CN1Cc2cc(NC(=O)c3cnn4cccnc34)c(N3CCOCC3)cc2C1=O`, for which the dTM in experiment [2] is -0.1 K.

Consider `Cn1cc(-n2cnc3c(NCc4nc5cc(Cl)c(Cl)cc5[nH]4)nc(N4CCOCC4)nc32)cn1`, for which, in experiment [3], the % of control was determined as 82.2%. The % of inhibition is -29.9% in experiment [4] and -2.81% in experiment [5].

Regarding `CC[C@@H]1[C@H](F)C(=O)N[C@@H]1COc1nccc2cc(C(N)=O)c(OC)cc12` [ZIMLOVISERTIB], the % of inhibition in experiment [6] is -2.18%.

In experiment [7], `O[C@H]1CC[C@H](Nc2ncc3nc(Nc4c(F)cc(F)cc4F)n([C@H]4CCOC4)c3n2)CC1` registered a % of control of 90%.

The values are drawn from ChEMBL document CHEMBL5465560, “Selectivity Literature for EUbOPEN Chemogenomic Library” (2024).
